Measurements: the supplement of paper PMC10307832

Legend:
Assay in all cases: relative viability (nuclei count vs DMSO), 5 days (fraction); higher = more cells survive
NCI-H2170 = tested on: NCI-H2170
Outline: (§1)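 Relative viability is defined as nuclei in treated wells over nuclei in vehicle wells. Duplicate plates were run and medians reported. Lung cancer cell lines in 1536-well plates were dosed by pin tool one day after seeding, with one drug or with a fixed anchor-drug dose plus five library-drug doses (not always all listed) in √10 steps, and nuclei were counted after 5 days.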

LCLC-103H = tested on: LCLC-103H
Outline: as §1

LOU-NH91 = tested on: LOU-NH91
Outline: as §1

HCC-366 = tested on: HCC-366
Outline: as §1

RERF-LC-KJ = tested on: RERF-LC-KJ
Outline: as §1

NCI-H596 = tested on: NCI-H596
Outline: as §1

NCI-H1755 = tested on: NCI-H1755
Outline: as §1

NCI-H838 = tested on: NCI-H838
Outline: as §1

NCI-H1651 = tested on: NCI-H1651
Outline: as §1

HCC-78 = tested on: HCC-78
Outline: as §1

NCI-H1975 = tested on: NCI-H1975
Outline: as §1

HCC-827 = tested on: HCC-827
Outline: as §1

NCI-H1993 = tested on: NCI-H1993
Outline: as §1

PC-3 [JPC-3] = tested on: PC-3 [JPC-3]
Outline: as §1

HARA = tested on: HARA
Outline: as §1

NCI-H1793 = tested on: NCI-H1793
Outline: as §1

HCC-44 = tested on: HCC-44
Outline: as §1

EPLC-272H = tested on: EPLC-272H
Outline: as §1

NCI-H1355 = tested on: NCI-H1355
Outline: as §1

Structure (SMILES): Nc1cccc2c1CN(C1CCC(=O)NC1=O)C2=O (centres undefined) [Lenalidomide] + NC(=O)Nc1cc(-c2cccc(F)c2)sc1C(=O)N[C@H]1CCCNC1 [AZD7762] (partner 0.2 µM)
- relative viability (NCI-H2170; first compound 0.253 µM): 0.861
- relative viability (NCI-H2170; first compound 0.8 µM): 0.703
- relative viability (NCI-H2170; first compound 2.53 µM): 0.976
- relative viability (NCI-H2170; first compound 8 µM): 0.739
- relative viability (LCLC-103H; first compound 0.253 µM): 0.755
- relative viability (LCLC-103H; first compound 0.8 µM): 0.796
- relative viability (LCLC-103H; first compound 2.53 µM): 0.786
- relative viability (LCLC-103H; first compound 8 µM): 0.589
- relative viability (LOU-NH91; first compound 0.253 µM): 0.781
- relative viability (LOU-NH91; first compound 0.8 µM): 0.702
- relative viability (LOU-NH91; first compound 2.53 µM): 0.766
- relative viability (LOU-NH91; first compound 8 µM): 0.647
- relative viability (HCC-366; first compound 0.253 µM): 0.258
- relative viability (HCC-366; first compound 0.8 µM): 0.268
- relative viability (HCC-366; first compound 2.53 µM): 0.371
- relative viability (HCC-366; first compound 8 µM): 0.335
- relative viability (RERF-LC-KJ; first compound 0.253 µM): 1.01
- relative viability (RERF-LC-KJ; first compound 0.8 µM): 0.319
- relative viability (RERF-LC-KJ; first compound 2.53 µM): 1.18
- relative viability (RERF-LC-KJ; first compound 8 µM): 0.82
- relative viability (NCI-H596; first compound 0.253 µM): 1.13
- relative viability (NCI-H596; first compound 0.8 µM): 1.09
- relative viability (NCI-H596; first compound 2.53 µM): 1.1
- relative viability (NCI-H596; first compound 8 µM): 1
- relative viability (NCI-H1755; first compound 0.253 µM): 0.458
- relative viability (NCI-H1755; first compound 0.8 µM): 0.498
- relative viability (NCI-H1755; first compound 2.53 µM): 0.452
- relative viability (NCI-H1755; first compound 8 µM): 0.454
- relative viability (NCI-H838; first compound 0.253 µM): 0.938
- relative viability (NCI-H838; first compound 0.8 µM): 0.871
- relative viability (NCI-H838; first compound 2.53 µM): 0.962
- relative viability (NCI-H838; first compound 8 µM): 1.03
- relative viability (NCI-H1651; first compound 0.253 µM): 0.506
- relative viability (NCI-H1651; first compound 0.8 µM): 0.436
- relative viability (NCI-H1651; first compound 2.53 µM): 0.568
- relative viability (NCI-H1651; first compound 8 µM): 0.44
- relative viability (HCC-78; first compound 0.253 µM): 0.767
- relative viability (HCC-78; first compound 0.8 µM): 0.537
- relative viability (HCC-78; first compound 2.53 µM): 0.617
- relative viability (HCC-78; first compound 8 µM): 0.417
- relative viability (NCI-H1975; first compound 0.253 µM): 0.8
- relative viability (NCI-H1975; first compound 0.8 µM): 0.642
- relative viability (NCI-H1975; first compound 2.53 µM): 0.776
- relative viability (NCI-H1975; first compound 8 µM): 0.713
- relative viability (HCC-827; first compound 0.253 µM): 0.264
- relative viability (HCC-827; first compound 0.8 µM): 0.325
- relative viability (HCC-827; first compound 2.53 µM): 0.255
- relative viability (HCC-827; first compound 8 µM): 0.206
- relative viability (NCI-H1993; first compound 0.253 µM): 0.587
- relative viability (NCI-H1993; first compound 0.8 µM): 0.646
- relative viability (NCI-H1993; first compound 2.53 µM): 0.702
- relative viability (NCI-H1993; first compound 8 µM): 0.539
- relative viability (PC-3 [JPC-3]; first compound 0.253 µM): 0.888
- relative viability (PC-3 [JPC-3]; first compound 0.8 µM): 0.467
- relative viability (PC-3 [JPC-3]; first compound 2.53 µM): 0.944
- relative viability (PC-3 [JPC-3]; first compound 8 µM): 0.667
- relative viability (HARA; first compound 0.253 µM): 0.173
- relative viability (HARA; first compound 2.53 µM): 0.296
- relative viability (HARA; first compound 8 µM): 0.434
- relative viability (NCI-H1793; first compound 0.253 µM): 0.476
- relative viability (NCI-H1793; first compound 2.53 µM): 0.821
- relative viability (NCI-H1793; first compound 8 µM): 0.389
- relative viability (HCC-44; first compound 0.253 µM): 0.97
- relative viability (HCC-44; first compound 0.8 µM): 0.836
- relative viability (HCC-44; first compound 2.53 µM): 0.999
- relative viability (HCC-44; first compound 8 µM): 1.14
- relative viability (EPLC-272H; first compound 0.253 µM): 0.23
- relative viability (EPLC-272H; first compound 0.8 µM): 0.202
- relative viability (EPLC-272H; first compound 2.53 µM): 0.213
- relative viability (EPLC-272H; first compound 8 µM): 0.201
- relative viability (NCI-H1355; first compound 0.253 µM): 0.798
- relative viability (NCI-H1355; first compound 0.8 µM): 0.59
- relative viability (NCI-H1355; first compound 2.53 µM): 0.765
- relative viability (NCI-H1355; first compound 8 µM): 0.696
